Experimental data: BindingDB's records for doi:10.1021/jm100886h (University of Copenhagen, 2010)

Experiment: Antagonist activity at GluR1 expressed in Xenopus laevis oocytes assessed as inhibition of glutamate-induced current at -60mV holding potential by two-electrode voltage-clamp electrophysiology

SMILES	IC50 [nM]
NCCCNCCCCNCCCNC(=O)[C@H](CC1CCCCC1)NC(=O)Cc1cccc2ccccc12 [(S)-N-(3-(4-(3-aminopropylamino)butylamino)propyl)-3-cyclohexyl-2-(2-(naphthalen-1-yl)acetamido)propanamide]	41
NCCCNCCCCNCCCNC(=O)[C@H](CC1CCCCC1)NC(=O)CC12CC3CC(CC(C3)C1)C2 [(S)-2-(2-Adamantan-1-yl-acetylamino)-N-{3-[4-(3-amino-propylamino)-butylamino]-propyl}-3-cyclohexyl-propionamide]	105
NCCCNCCCCNCCCNC(=O)[C@H](CC1CCCCC1)NC(=O)C1CCCCC1 [(S)-N-(1-(3-(4-(3-aminopropylamino)butylamino)propylamino)-3-cyclohexyl-1-oxopropan-2-yl)cyclohexanecarboxamide]	21
CCCC(=O)N[C@@H](CC1CCCCC1)C(=O)NCCCNCCCCNCCCN [(S)-N-(1-(3-(4-(3-aminopropylamino)butylamino)propylamino)-3-cyclohexyl-1-oxopropan-2-yl)butyramide]	32
NCCCNCCCCNCCCNC(=O)[C@H](CC1CCCCC1)NC(=O)c1ccc(-c2ccccc2)cc1 [(S)-N-(1-(3-(4-(3-aminopropylamino)butylamino)propylamino)-3-cyclohexyl-1-oxopropan-2-yl)biphenyl-4-carboxamide]	87
